Here are results for 14 compounds from patent US20260146035A1, “FUSED BICYCLIC COMPOUNDS AND THEIR USE AS MER AND AXL INHIBITORS” (DONG-A ST CO., LTD., priority 2022, published 2026).

One assay concerns the target T1, human AXL (473-end) (Homo sapiens, UniProt P30530).
T1 construct: human AXL (473-end); purchased SignalChem, Canada
T1 sequence (P30530 473-894 limits assumed): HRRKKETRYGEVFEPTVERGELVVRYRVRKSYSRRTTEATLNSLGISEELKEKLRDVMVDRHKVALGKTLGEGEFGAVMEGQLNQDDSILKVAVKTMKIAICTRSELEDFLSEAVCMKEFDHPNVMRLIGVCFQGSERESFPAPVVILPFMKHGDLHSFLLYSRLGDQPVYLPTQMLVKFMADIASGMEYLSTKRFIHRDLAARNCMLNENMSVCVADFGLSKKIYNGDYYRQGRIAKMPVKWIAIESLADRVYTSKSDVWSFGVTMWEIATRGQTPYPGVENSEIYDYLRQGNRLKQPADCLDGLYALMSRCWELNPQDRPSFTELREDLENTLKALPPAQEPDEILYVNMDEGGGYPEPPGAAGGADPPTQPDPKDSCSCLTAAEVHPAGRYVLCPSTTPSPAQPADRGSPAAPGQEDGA
As to the kind of experiment: HTRF kinase activity biochemical assay, AXL. To be noted: 10 μM ATP, 30 minutes pre-incubation. (Time-resolved FRET reads energy transfer from a long-lived donor to a nearby acceptor.)

The target in the next assay is T2, human TYRO3 (455-end) (Homo sapiens, UniProt Q06418).
T2 construct: TYRO3 (455-end); purchased SignalChem, Canada
T2 sequence (Q06418 455-890 limits assumed): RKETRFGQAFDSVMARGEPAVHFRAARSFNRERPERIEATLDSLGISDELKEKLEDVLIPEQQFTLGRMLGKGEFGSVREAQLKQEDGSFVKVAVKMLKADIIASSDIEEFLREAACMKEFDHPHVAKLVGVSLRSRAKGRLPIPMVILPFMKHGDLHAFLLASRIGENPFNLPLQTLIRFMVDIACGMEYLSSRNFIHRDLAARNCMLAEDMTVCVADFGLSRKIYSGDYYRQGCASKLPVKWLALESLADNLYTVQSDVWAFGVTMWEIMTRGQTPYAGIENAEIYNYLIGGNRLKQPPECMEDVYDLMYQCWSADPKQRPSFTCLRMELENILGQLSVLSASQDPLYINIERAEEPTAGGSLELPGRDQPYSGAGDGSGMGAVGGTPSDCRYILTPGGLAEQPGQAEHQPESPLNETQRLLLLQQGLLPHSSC
The assay is described as follows: HTRF kinase activity biochemical assay, TYRO3. To be noted: 10 μM ATP, 30 minutes pre-incubation; read-out: HTRF TYRO IC50.

In a further assay the target is T3, human MER (528-end) (Homo sapiens, UniProt Q12866).
T3 construct: human MER (528-end); purchased Camnabio, Japan
T3 sequence (Q12866 528-999 limits assumed): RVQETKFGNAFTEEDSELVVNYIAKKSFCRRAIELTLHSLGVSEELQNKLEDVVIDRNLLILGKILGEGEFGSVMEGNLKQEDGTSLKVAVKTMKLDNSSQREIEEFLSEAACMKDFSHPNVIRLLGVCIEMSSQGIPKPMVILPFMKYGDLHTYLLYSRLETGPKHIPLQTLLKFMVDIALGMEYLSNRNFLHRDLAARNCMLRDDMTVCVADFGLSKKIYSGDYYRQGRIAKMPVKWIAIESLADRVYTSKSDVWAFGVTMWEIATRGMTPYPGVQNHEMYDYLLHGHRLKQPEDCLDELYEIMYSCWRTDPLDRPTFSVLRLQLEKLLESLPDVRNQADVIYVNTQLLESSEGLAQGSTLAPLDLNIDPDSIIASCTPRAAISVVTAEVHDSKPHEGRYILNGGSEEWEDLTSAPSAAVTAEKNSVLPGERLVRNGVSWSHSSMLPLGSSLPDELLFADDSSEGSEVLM
As to the kind of experiment: HTRF kinase activity biochemical assay, MER. The following applies: 10 μM ATP, 30 minutes pre-incubation; read-out: HTRF MERTK IC50.

As for `Cn1cc(-c2cnc(N)c(C(=O)N[C@H]3CCC[C@@H]3OCc3ccc(-c4ccc5c(N6CCN(CCO)CC6)coc5c4)cc3)c2)cn1` [Example 95, 2-amino-N-{(1S,2S)-2-[(4-{3-[4-(2-hydroxyethyl)piperazin-1-yl]-1-benzofuran-6-yl}phenyl)methoxy]cyclopentyl}-5-(1-methyl-1H-pyrazol-4-yl)pyridine-3-carboxamide], the figures for the IC50 against human AXL (473-end), on human TYRO3 (455-end) and on human MER (528-end) were 100 to 1000 nM, greater than 1000 nM and 10 to 100 nM, respectively.
The like results for `Cn1cc(-c2cnc(N)c(C(=O)N[C@H]3CCC[C@@H]3OCc3ccc(-c4ccc5c(c4)C(C)(C)C[C@H]5N4CCN(CCO)CC4)cc3)c2)cn1` [Example 96, 2-amino-N-{(1S,2S)-2-[(4-{(1R)-1-[4-(2-hydroxyethyl)piperazin-1-yl]-3,3-dimethyl-2,3-dihydro-1H-inden-5-yl}phenyl)methoxy]cyclopentyl}-5-(1-methyl-1H-pyrazol-4-yl)pyridine-3-carboxamide] were, in that order, 10 to 100 nM, greater than 1000 nM and 10 to 100 nM.
The like results for `CC1(C)C[C@@H](N2CCN(CCO)CC2)c2ccc(-c3ccc(CO[C@H]4CCC[C@@H]4NC(=O)c4cc(-c5ccc(F)nc5)cnc4N)cc3)cc21` [Example 97, 6-amino-6′-fluoro-N-{(1S,2S)-2-[(4-{(1R)-1-[4-(2-hydroxyethyl)piperazin-1-yl]-3,3-dimethyl-2,3-dihydro-1H-inden-5-yl}phenyl)methoxy]cyclopentyl}[3,3′-bipyridine]-5-carboxamide] were, in that order, 100 to 1000 nM, greater than 1000 nM and 100 to 1000 nM.
The like results for `Cn1cc(-c2cnc(N)c(C(=O)N[C@H]3CCC[C@@H]3OCc3ccc(-c4ccc5c(c4)CC[C@@H]5N4CCN(CC(O)CO)CC4)cc3)c2)cn1` (stereo partly drawn) [Example 98, 2-amino-N-{(1S,2S)-2-[(4-{(1S)-1-[4-(2,3-dihydroxypropyl)piperazin-1-yl]-2,3-dihydro-1H-inden-5-yl}phenyl)methoxy]cyclopentyl}-5-(1-methyl-1H-pyrazol-4-yl)pyridine-3-carboxamide] were, in that order, less than 10 nM, 10 to 100 nM and less than 10 nM.
Take `Cn1ccc(-c2cnc(N)c(C(=O)N[C@H]3CCC[C@@H]3OCc3ccc(-c4ccc5c(c4)CC[C@@H]5N4CCN(CC(O)CO)CC4)cc3)c2)cc1=O` (stereo partly drawn) [Example 99, 6-amino-N-{(1S,2S)-2-[(4-{(1S)-1-[4-(2,3-dihydroxypropyl)piperazin-1-yl]-2,3-dihydro-1H-inden-5-yl}phenyl)methoxy]cyclopentyl}-1′-methyl-2′-oxo-1′,2′-dihydro[3,4′-bipyridine]-5-carboxamide]: the half-maximal inhibitory concentration (IC50) at human AXL (473-end) was less than 10 nM; at human TYRO3 (455-end), 100 to 1000 nM; on human MER (528-end) it was less than 10 nM.
For `Cn1cc(-c2cnc(N)c(C(=O)N[C@H]3CCC[C@@H]3OCc3ccc(-c4ccc5c(c4)CC[C@H]5N4CCN(CC(O)CO)CC4)cc3)c2)cn1` (stereo partly drawn) [Example 101, 2-amino-N-{(1S,2S)-2-[(4-{(1R)-1-[4-(2,3-dihydroxypropyl)piperazin-1-yl]-2,3-dihydro-1H-inden-5-yl}phenyl)methoxy]cyclopentyl}-5-(1-methyl-1H-pyrazol-4-yl)pyridine-3-carboxamide], the results for the half-maximal inhibitory concentration (IC50) against human AXL (473-end), at human TYRO3 (455-end) and at human MER (528-end) were 10 to 100 nM, greater than 1000 nM and 10 to 100 nM, respectively.
Consider `CC1(C)C[C@H](N2CCN(CCO)CC2)c2ccc(-c3ccc(CO[C@H]4CCC[C@@H]4NC(=O)c4cc(-c5ccc(F)nc5)cnc4N)cc3)cc21` [Example 104, 6-amino-6′-fluoro-N-{(1S,2S)-2-[(4-{(1S)-1-[4-(2-hydroxyethyl)piperazin-1-yl]-3,3-dimethyl-2,3-dihydro-1H-inden-5-yl}phenyl)methoxy]cyclopentyl}[3,3′-bipyridine]-5-carboxamide], for which the half-inhibitory concentration (IC50) on human AXL (473-end), at human TYRO3 (455-end) and at human MER (528-end) was less than 10 nM throughout.
Consider `Cn1cc(-c2cnc(N)c(C(=O)N[C@H]3CCC[C@@H]3OCc3ccc(-c4ccc5c(c4)CC(C)(C)C5N4CCN(CCO)CC4)cc3)c2)cn1` (stereo partly drawn) [Example 105, 2-amino-N-{(1S,2S)-2-[(4-{1-[4-(2-hydroxyethyl)piperazin-1-yl]-2,2-dimethyl-2,3-dihydro-1H-inden-5-yl}phenyl)methoxy]cyclopentyl}-5-(1-methyl-1H-pyrazol-4-yl)pyridine-3-carboxamide], for which the IC50 is less than 10 nM against human AXL (473-end), 100 to 1000 nM at human TYRO3 (455-end) and less than 10 nM at human MER (528-end).
For the compound `Nc1ncc(-c2ccc(F)nc2)cc1C(=O)N[C@H]1CCC[C@@H]1OCc1ccc(-c2ccc3c(c2)CCCC3N2CCN(CCO)CC2)cc1` (stereo partly drawn) [Example 106, 6-amino-6′-fluoro-N-{(1S,2S)-2-[(4-{5-[4-(2-hydroxyethyl)piperazin-1-yl]-5,6,7,8-tetrahydronaphthalen-2-yl}phenyl)methoxy]cyclopentyl}[3,3′-bipyridine]-5-carboxamide], the figures for the IC50 on human AXL (473-end), on human TYRO3 (455-end) and at human MER (528-end) were less than 10 nM, 10 to 100 nM and less than 10 nM, respectively.
As to `CN1CCN(C2CC(C)(C)c3cc(-c4ccc(CO[C@H]5CCC[C@@H]5NC(=O)c5cc(-c6ccn(C)c(=O)c6)cnc5N)cc4)ccc32)CC1` (stereo partly drawn) [Example 107, 6-amino-N-[(1S,2S)-2-({4-[3,3-dimethyl-1-(4-methylpiperazin-1-yl)-2,3-dihydro-1H-inden-5-yl]phenyl}methoxy)cyclopentyl]-1′-methyl-2′-oxo-1′,2′-dihydro[3,4′-bipyridine]-5-carboxamide], the results for the IC50 against human AXL (473-end), at human TYRO3 (455-end) and at human MER (528-end) were less than 10 nM, 10 to 100 nM and less than 10 nM, respectively.
For the compound `CN1CCN(C2CC(C)(C)c3cc(-c4ccc(CO[C@H]5CCC[C@@H]5NC(=O)c5cc(-c6cccnc6F)cnc5N)cc4)ccc32)CC1` (stereo partly drawn) [Example 108, 6-amino-N-[(1S,2S)-2-({4-[3,3-dimethyl-1-(4-methylpiperazin-1-yl)-2,3-dihydro-1H-inden-5-yl]phenyl}methoxy)cyclopentyl]-2′-fluoro[3,3′-bipyridine]-5-carboxamide], the concentration for half-maximal inhibition (IC50) was less than 10 nM on human AXL (473-end), 10 to 100 nM on human TYRO3 (455-end) and less than 10 nM on human MER (528-end).
As to `CN(C)C1c2ccc(-c3ccc(CO[C@H]4CCC[C@@H]4NC(=O)c4cc(-c5cnn(C)c5)cnc4N)cc3)cc2CC1(C)C` (stereo partly drawn) [Example 109, 2-amino-N-[(1S,2S)-2-({4-[1-(dimethylamino)-2,2-dimethyl-2,3-dihydro-1H-inden-5-yl]phenyl}methoxy)cyclopentyl]-5-(1-methyl-1H-pyrazol-4-yl)pyridine-3-carboxamide], the IC50 at human AXL (473-end) was less than 10 nM; at human TYRO3 (455-end), greater than 1000 nM; at human MER (528-end) it was 10 to 100 nM.
For `Cc1cn(C2CCN(CCO)CC2)c2ncc(-c3ccc(CO[C@H]4CCC[C@@H]4NC(=O)c4cc(-c5cnn(C)c5)cnc4N)cc3)cc12` [Example 110, 2-amino-N-{(1S,2S)-2-[(4-{1-[1-(2-hydroxyethyl)piperidin-4-yl]-3-methyl-1H-pyrrolo[2,3-b]pyridin-5-yl}phenyl)methoxy]cyclopentyl}-5-(1-methyl-1H-pyrazol-4-yl)pyridine-3-carboxamide], in that order: less than 10 nM, 100 to 1000 nM and less than 10 nM.
In the case of `Cn1cc(-c2cnc(N)c(C(=O)N[C@H]3CCC[C@@H]3OCc3ccc(-c4ccc5c(cnn5C5CCN(CCO)CC5)c4)cc3)c2)cn1` [Example 111, 2-amino-N-{(1S,2S)-2-[(4-{1-[1-(2-hydroxyethyl)piperidin-4-yl]-1H-indazol-5-yl}phenyl)methoxy]cyclopentyl}-5-(1-methyl-1H-pyrazol-4-yl)pyridine-3-carboxamide], the IC50 is 100 to 1000 nM against human AXL (473-end), greater than 1000 nM on human TYRO3 (455-end) and 10 to 100 nM on human MER (528-end).

Broadly, the IC50 is the concentration that inhibits the measured activity by half.
